Results taken from US8455523B2, “Compositions and methods for treating hyperlipidemias” (The Research Foundation of State University of New York, priority 2010, dated 2013).

How the values were obtained:
[1] = test system: C57Bl/6J mice fed either a chow or western diet; experiment: MTP inhibitor BMS-212122-01 with or without lovastatin, pioglitazone or PBA in chow or western diet fed C57Bl/6J mice; assay type: in vivo; conditions: WD one month
Description: FIG. 13. Age matched wildtype C57/Bl6J animals chow fed animals were treated with DMSO (control) or MTP inhibitor (MTPi) for one week. […] All drugs were administered by oral gavage. Animals were sacrificed on day 7 and plasma and livers were harvested and analyzed. * represent comparison to DMSO control; # represent comparisons to WD control; @ represent comparisons to WD MTP inhibitor treatment.
FIG. 18. Age matched wildtype C57/BL6J were fed WD for one month and were administered MTPi, or 4-phenylbutyric acid (PBA) everyday for one week. All drugs were administered by oral gavage. Animals were sacrificed on day 7 and livers were harvested. * represent comparison DMSO control; # represent comparisons to HF MTP inhibitor treated animals.
(§1) C57BL/6J Black 6 mice (stock number 000664) were obtained from Jackson Laboratory and used for chow fed and western diet fed experiments. MTP inhibitor (BMS […]) (1 mg/kg/day), Lovastatin, Pioglitazone (Toronto Research Chemicals P471000) (25 mg/kg/day) and 4-phenylbutyric acid (Calbiochem 820986) (1 g/kg/day) were administered by oral gavage. Chow fed animals were treated for one week with either DMSO or MTP inhibitor. Western diet fed animals were fed DMSO, MTP inhibitor, Pioglitazone, MTP inhibitor+Pioglitazone, Lovastatin, MTP inhibitor+Lovastatin, 4-phenylbutyric acid, and MTP inhibitor+4-phenylbutyric acid. Chow fed animals were also injected with either PBS or Tunicamycin and animals were sacrificed at 4, 8, 12 and 24 hours.
All animals were kept in 07:00-19:00 h lighting schedule. […] Food was withdrawn 16 h before the sacrifice of the mice. On the day of the experiment, mice were anesthetized and blood was collected from the heart. Liver was collected, washed in ice-cold PBS, cut into small pieces and used for lipid extraction, histological staining, to measure different protein activities/quantities and for mRNA analysis. Lipids were extracted from the tissue homogenates following the Bligh and Dyer method. Triglyceride (Infinity TM Triglyceride, TR22421) and total cholesterol (Infinity TM Cholesterol, TR13421) levels in the tissues were determined using commercial kits (Thermo Scientific). Free cholesterol and free fatty acid levels were measured using kits from Wako Chemicals (Germany). Esterified cholesterol was calculated by subtracting the free cholesterol from the total cholesterol.
We next studied the effects of chemical inhibition of MTP in C57Bl/6J mice fed either a chow or western diet (WD) for 5 weeks. Chow fed animals were orally gavaged with either DMSO or MTP inhibitor BMS-212122-01 (MTPi; 1 mg/kg/day) for one week. WD fed animals were treated with DMSO, MTP inhibitor with or without lovastatin (50 mg/kg/day) or pioglitazone (25 mg/kg/day) daily by oral gavage for one week.

[2] = test system: hepatic mRNA of ER stress, inflammation and lipid metabolism genes; experiment: Hepatic mRNA quantification (qPCR, XBP-1 splicing) in treated mice; assay type: in vivo; conditions: liver
Excerpt: FIGS. 6a and 6b. Liver samples from FIG. 16 were used to isolate total mRNA and to quantify expression of different candidate genes. Statistical analyses were as described in FIGS. 16-17.
FIGS. 9a and 9b. C57B/6J mice were fed a western diet for 8 weeks and then treated with MTP inhibitor and other indicated compounds for 8 days as described in FIG. 16. Liver samples were used to isolate mRNA and to quantify mRNA levels with different candidate genes. Stars on MTPi group represent comparison with the control group.
FIG. 16. Age matched wildtype C57/BL6J animals chow fed animals were treated with DMSO (control) or MTP inhibitor (MTPi) for one week. Age matched wildtype C57/BL6J were fed WD for one month and were administered MTPi, Lovastatin, (Lova), Pioglitazone (Pio) or 4-phenylbutyric acid (PBA) every day for one week. All drugs were administered by oral gavage. Animals were sacrificed on day 7 and livers were harvested. mRNA was extracted and subjected to qPCR analysis. * represent comparison DMSO control; # represent comparisons to WD control; @ represent comparisons to WD MTP inhibitor treated animals.
mRNA quantifications and primers used: Total RNA from tissues and cells were isolated using TriZol™ (Invitrogen). The purity and integrity of RNA were assessed by the A260/A280 ratio and 1% agarose gel electrophoresis, respectively. Only the RNAs with ratios more than 1.7 were used for cDNA synthesis. The first strand cDNA was synthesized using Omniscript RT (Qiagen) kit. Briefly, 2 μg of total RNA, 1 μM random primers (Invitrogen), 0.5 mM dNTP solution, and 0.5 U/μl Omniscript Reverse Transcriptase were incubated at 37° C. for 1 h in 20 μl of RT buffer and the reaction was terminated by incubating at 95° C. for 5 minutes. Each reaction of quantitative RT-PCR was carried out in a volume of 20 μl consisting of 5 μl cDNA sample (1:100 dilution of the first strand cDNA sample) and 15 μl of PCR master mix solution containing 1×PCR reaction buffer, 6 mM MgCl2, 200 nM primer pair, 0.025 U/μl HotStar Gold™ DNA polymerase, 200 μM dNTP solution, and 0.3 μl SYBR Green I solution (gPCR™ Core Kit for SYBR Green I, Eurogentec). The PCR was carried out by incubating the reaction mixture first for 10 minute at 95° C. followed by 40 cycles of 15 sec incubations at 95° C. and 1 min at 60° C. in the ABI 7000 SDS PCR machine. The data were analyzed using ΔΔCT method according to manufacturer's instruction and presented as arbitrary units. The primers used in this study were designed with the PrimerExpress 3.0 software (Applied Biosystems, CA) and are presented as Table 1.

[3] = in vivo; cited from earlier work
guinea pigs = conditions: cited from earlier work
MTP [4] = target: T1, MTP (Mus musculus, UniProt O08601); experiment: Determination of MTP activity in tissues (liver homogenates of treated mice); assay type: in vivo; conditions: chow fed C57/BL6J, IP tunicamycin, 4-24 hours
T1 construct: small pieces (0.1 g) of liver and ˜1-cm segments of proximal small intestine were homogenized; from tissue; host or cells: mouse liver (C57BL/6J; Reversa mice in some experiments); supernatant of ultracentrifuged homogenate
T1 sequence (O08601 22-894): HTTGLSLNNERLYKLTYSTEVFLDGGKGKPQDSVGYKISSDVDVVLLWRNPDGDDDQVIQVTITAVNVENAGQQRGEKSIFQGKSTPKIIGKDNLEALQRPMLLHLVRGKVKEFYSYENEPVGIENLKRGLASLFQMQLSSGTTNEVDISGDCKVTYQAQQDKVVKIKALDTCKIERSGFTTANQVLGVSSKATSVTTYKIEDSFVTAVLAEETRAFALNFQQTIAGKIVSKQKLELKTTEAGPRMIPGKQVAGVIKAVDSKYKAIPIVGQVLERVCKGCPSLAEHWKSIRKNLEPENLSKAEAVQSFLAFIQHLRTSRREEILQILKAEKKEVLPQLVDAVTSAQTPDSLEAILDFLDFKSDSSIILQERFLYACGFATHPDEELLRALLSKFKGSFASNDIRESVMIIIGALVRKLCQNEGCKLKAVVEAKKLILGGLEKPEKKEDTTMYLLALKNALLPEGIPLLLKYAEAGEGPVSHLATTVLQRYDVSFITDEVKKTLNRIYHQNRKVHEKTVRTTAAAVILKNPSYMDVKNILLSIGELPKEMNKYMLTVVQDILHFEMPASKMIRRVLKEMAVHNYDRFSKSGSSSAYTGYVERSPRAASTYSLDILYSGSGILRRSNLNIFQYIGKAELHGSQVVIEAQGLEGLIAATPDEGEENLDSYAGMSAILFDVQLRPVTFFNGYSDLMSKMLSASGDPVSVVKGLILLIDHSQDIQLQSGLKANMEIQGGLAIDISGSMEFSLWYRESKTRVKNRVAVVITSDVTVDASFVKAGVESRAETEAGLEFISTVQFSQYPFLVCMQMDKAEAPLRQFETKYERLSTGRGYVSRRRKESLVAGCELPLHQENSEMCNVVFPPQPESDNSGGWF
T1 sequence (P09103 21-509 partner limits assumed): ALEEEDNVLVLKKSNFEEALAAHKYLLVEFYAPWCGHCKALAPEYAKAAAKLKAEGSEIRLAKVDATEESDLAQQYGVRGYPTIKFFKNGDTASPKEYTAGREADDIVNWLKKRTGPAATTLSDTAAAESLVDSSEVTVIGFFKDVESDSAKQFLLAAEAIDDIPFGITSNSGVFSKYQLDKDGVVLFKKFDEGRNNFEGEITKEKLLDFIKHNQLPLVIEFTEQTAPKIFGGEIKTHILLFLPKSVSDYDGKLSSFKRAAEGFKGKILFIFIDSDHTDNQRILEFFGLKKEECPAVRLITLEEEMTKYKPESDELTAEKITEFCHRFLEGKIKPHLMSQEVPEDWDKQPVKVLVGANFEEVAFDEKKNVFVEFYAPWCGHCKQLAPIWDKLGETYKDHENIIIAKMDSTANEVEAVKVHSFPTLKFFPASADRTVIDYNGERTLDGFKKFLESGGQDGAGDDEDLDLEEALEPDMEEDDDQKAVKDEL
Description: After extensive washes with ice-cold PBS, small pieces (0.1 g) of liver and ˜1-cm segments of proximal small intestine were homogenized with 1 ml of ice-cold 1 mM Tris-HCl, pH 7.6, 1 mM EGTA, and 1 mM MgCl2 buffer in a glass homogenizer. The homogenates were centrifuged (SW55 Ti rotor, 50,000 rpm, 10° C., 1 h), and supernatants were used for MTP assay as described before (41; 42) using a kit (Chylos, Inc.).

C57Bl/6J mice = experiment: ER stress induction by tunicamycin in mice: plasma AST/ALT and lipids; assay type: in vivo
Description: FIG. 10. Effect of tunicamycin on plasma ALT/AST levels. W iid type mice were injected intraperitoneally with 1 mg/kg tunicamycin. Plasma were collected after 48 h and used to measure enzyme activities.
FIG. 17. Age matched wildtype C57/BL6J animals chow fed animals were injected via IP with either PBS or Tunicamycin. Animals were sacrificed at 4, 8, 12 and 24 hours. Plasma and livers were collected and mRNA extracted from liver samples.
To determine whether ER stress itself would increase plasma AST/ALT, C57Bl/6J mice were injected with tunicamycin (1 mg/kg) as described before. Plasma AST/ALT levels were measured after 36 h (FIG. 10). […] We will be measuring cellular lipid to determine whether tunicamycin affects hepatic lipid levels as well as mRNA and protein levels of different candidate genes involved in ER stress pathway.
as §1

MTP [5] = target: MTP (Homo sapiens, UniProt P55157); conditions: cited from earlier work
Sequence of MTP (Homo sapiens, UniProt P55157) (P55157 19-894, species assumed): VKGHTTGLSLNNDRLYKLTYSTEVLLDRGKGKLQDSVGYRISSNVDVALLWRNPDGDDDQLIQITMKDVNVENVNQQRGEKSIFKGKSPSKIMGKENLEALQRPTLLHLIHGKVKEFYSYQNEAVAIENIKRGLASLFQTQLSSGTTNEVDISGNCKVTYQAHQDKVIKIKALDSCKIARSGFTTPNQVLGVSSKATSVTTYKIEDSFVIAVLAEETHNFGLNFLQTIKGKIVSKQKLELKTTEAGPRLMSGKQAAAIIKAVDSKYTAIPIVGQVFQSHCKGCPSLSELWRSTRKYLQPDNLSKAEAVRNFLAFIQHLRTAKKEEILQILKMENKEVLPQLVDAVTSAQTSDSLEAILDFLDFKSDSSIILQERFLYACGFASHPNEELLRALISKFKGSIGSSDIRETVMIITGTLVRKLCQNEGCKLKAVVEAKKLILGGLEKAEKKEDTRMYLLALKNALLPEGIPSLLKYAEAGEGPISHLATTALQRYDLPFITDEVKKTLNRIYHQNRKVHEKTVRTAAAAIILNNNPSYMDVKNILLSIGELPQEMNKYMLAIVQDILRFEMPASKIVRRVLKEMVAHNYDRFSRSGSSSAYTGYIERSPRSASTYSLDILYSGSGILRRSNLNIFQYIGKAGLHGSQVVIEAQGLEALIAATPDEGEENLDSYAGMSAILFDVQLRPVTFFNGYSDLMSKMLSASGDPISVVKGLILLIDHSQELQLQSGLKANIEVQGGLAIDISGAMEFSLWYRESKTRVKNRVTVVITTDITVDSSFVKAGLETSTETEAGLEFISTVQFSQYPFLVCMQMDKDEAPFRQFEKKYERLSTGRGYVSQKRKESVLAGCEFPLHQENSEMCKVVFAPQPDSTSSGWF
Sequence of MTP (Homo sapiens, UniProt P55157) (P07237 18-508 partner, species assumed): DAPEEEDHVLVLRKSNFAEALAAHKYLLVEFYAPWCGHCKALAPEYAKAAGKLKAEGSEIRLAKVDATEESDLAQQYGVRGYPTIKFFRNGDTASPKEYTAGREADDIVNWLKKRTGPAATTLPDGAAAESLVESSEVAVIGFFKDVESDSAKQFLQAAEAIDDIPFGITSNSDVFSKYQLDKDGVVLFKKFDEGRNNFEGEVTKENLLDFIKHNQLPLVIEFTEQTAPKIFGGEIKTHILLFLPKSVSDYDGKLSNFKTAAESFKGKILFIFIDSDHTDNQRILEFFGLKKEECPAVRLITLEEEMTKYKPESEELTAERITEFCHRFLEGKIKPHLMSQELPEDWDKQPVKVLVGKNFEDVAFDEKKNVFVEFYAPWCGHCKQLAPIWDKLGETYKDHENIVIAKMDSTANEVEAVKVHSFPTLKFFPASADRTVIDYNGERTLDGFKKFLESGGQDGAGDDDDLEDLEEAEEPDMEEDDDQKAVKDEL

[6] = chow fed C57/BL6J, IP, 4-24 hours

In the case of `O=C(O)CCCc1ccccc1` [PBA, 4-phenylbutyric acid], the “hepatic triglycerides and free cholesterol (hepatic lipids)” value ([1]; MTPi ± PBA one week) was “did not reduce”, the “MTP activity, hepatic and plasma lipids” value ([1]; PBA 1 g/kg/day alone or co-administered with MTP inhibitor, one week) was “no effect” and the “rises in plasma AST/ALT after MTP inhibition” value ([1]; PBA 1 g/kg/day with MTP inhibitor, one week) was “spared increases”. For the same compound, the “mRNA levels of ER stress markers vs MTPi treated animals” value ([2]; PBA with MTPi) was “significantly lower”.
In the case of `COc1cccc(C(=O)Nc2ccc3c(c2)CCN(C(=O)Oc2ccccc2)C3)c1-c1ccc(C(F)(F)F)cc1` [SLx-4090], the plasma lipids [3] is listed as “lower”.
For `CCOC(=O)C(COC(=O)Cc1ccc(NC(=O)c2ccccc2-c2ccc(C(F)(F)F)cc2)c(C(=O)N(C)C)c1)(C(=O)OCC)c1ccccc1` [JTT-130], the hepatic triglyceride (guinea pigs) is listed as “without increasing” and the “plasma triglyceride and LDL cholesterol” value (guinea pigs) is listed as “lower”.
In the case of tunicamycin, the “hepatic MTP activity” value (MTP [4]) was “no effect”, the “Plasma AST/ALT levels” value (C57Bl/6J mice; 1 mg/kg injected, measured after 36 h) was “significantly enhanced” and the “plasma AST/ALT vs PBS injected animals” value (C57Bl/6J mice; 24 hours after injection) was “still significantly elevated”. For the same compound, the “increase of plasma AST/ALT” value (C57Bl/6J mice; acute induction of ER stress) was 2.5 fold, the “time of peak plasma AST/ALT levels after injection” value (C57Bl/6J mice; chow fed C57/BL6J, IP) was 8 h and the hepatic lipids (C57Bl/6J mice; [6]) was “increased”. The “plasma cholesterol and triglycerides” value (C57Bl/6J mice; [6]) was “lowered”, the plasma transaminases (C57Bl/6J mice; chow fed C57/BL6J, IP, vs PBS) was “higher” and the XBP-1 splicing assay ([2]; tunicamycin IP) was “revealed the spliced form of XBP-1”. For the same compound, the “mRNA expression of ER stress markers Bip, Ire1α and CHOP” value ([2]; tunicamycin IP time course) was “elevations”.
For `O=C1c2c(O)cc(O)cc2OC(c2ccc(O)c(O)c2)C1O` (stereo not shown) [Taxifolin], the cellular lipids (MTP [5]) is given as “without increasing” and the “triglyceride synthesis and MTP activity” value (MTP [5]) is given as “inhibits”.
